This is an account of results in paper PMC9721424, “Novel N-methylsulfonyl-indole derivatives: biological activity and COX-2/5-LOX inhibitory effect with improved gastro protective profile and reduced cardio vascular risks” (Journal of Enzyme Inhibition and Medicinal Chemistry, 2022).

Read-outs that look alike come from different tables or passages of the source.

For series [1], the system named is TNF-α in RAW264.7 macrophage cells. Nature of the series: In vitro measurement of TNF-α in RAW264.7 macrophage cells (RT-qPCR). It is filed as cell-based. From the text: Both Lipopolysaccharides (LPS) and hispidin were purchased from Sigma (Sigma-Aldrich, St. Louis, MO, USA)[40]. The foetal bovine serum (FBS) and Dulbecco’s modified Eagle’s medium (DMEM) were purchased from Hyclone (General Electric Healthcare Life Sciences, Mississauga, Canada), penicillin streptomycin (P/S) was purchased from Solarbio (Solarbio life sciences, Beijing, P. R. China). Results of all in vitro anti-inflammatory screening were obtained from the confirmatory diagnostic unit, VACSERA, Egypt.
DMEM was used to cultivate the macrophage cells RAW264.7 (Shanghai BOGO Industrial Co., Ltd., Shanghai, China), and supplemented with 10% FBS and 1% P/S (100 U/ml and […], respectively). […] They were treated with various concentrations of hispidin, then with 1 μg/ml LPS for the indicated time.
PBS (1 ml/well) was used to wash the cells in 24-well plates. […] For the experiments, CL Buffer included MgCl2 (M1028; Sigma) or RNasin Plus RNase Inhibitor (N2615; Promega). Before use, both Bio-Rad SPR and CL buffer were equilibrated to room temperature. […] Carefully, the resulting lysates were collected and either analysed immediately or stored frozen ([…]).
RT-qPCR analysis was performed in one-step SYBR Green RT-qPCR. […] A CFX96 real-time PCR instrument (Bio-Rad) was used under the following protocol: 50uC for 10 min, 95uC for 5 min, 95uC for 10 s/61uC for 15 s/72uC for 30 s.
Total RNA purified from cells was used as an RT-qPCR quantification standard.

Series [2] deals with Escherichia coli (E. coli) (ATCC 25922). In words: Disc diffusion antimicrobial screening, E. coli. It is filed as cell-based. The following applies: for antibacterial activity against E. coli: 100 µg/disc. As to the method: All compounds were screened for their antimicrobial activity at the Microbiology and Immunology Department, Faculty of Pharmacy, Beni-Suef University. The antimicrobial activity screening was carried out using the disc diffusion method, as described earlier, with some adjustments.
For each indicator microbe, a solution of half McFarland turbidity was prepared in sterile saline, followed by surface streaking of the strains on Mueller-Hinton agar with a sterile cotton swab. Then, sterile filter paper discs (5 mm diameter) preloaded with 100 µg of each compound were applied to the surface of the pre-inoculated plates. Then, the plates were chilled at 4 °C for 100 min before being incubated overnight at the proper temperature for microbial growth. Finally, the diameter of the inhibition zones around each disc was measured to evaluate the antimicrobial activity of the compounds. Ciprofloxacin was used as a standard antibacterial agent at a concentration of 20 µg/disc. Furthermore, DMSO-loaded discs were used as a negative control.
(In general: Agar diffusion results depend on both activity and mobility in agar.)

Another series addresses T1, ovine COX-1 (Ovis aries, UniProt P05979).
T1 sequence (P05979 25-600): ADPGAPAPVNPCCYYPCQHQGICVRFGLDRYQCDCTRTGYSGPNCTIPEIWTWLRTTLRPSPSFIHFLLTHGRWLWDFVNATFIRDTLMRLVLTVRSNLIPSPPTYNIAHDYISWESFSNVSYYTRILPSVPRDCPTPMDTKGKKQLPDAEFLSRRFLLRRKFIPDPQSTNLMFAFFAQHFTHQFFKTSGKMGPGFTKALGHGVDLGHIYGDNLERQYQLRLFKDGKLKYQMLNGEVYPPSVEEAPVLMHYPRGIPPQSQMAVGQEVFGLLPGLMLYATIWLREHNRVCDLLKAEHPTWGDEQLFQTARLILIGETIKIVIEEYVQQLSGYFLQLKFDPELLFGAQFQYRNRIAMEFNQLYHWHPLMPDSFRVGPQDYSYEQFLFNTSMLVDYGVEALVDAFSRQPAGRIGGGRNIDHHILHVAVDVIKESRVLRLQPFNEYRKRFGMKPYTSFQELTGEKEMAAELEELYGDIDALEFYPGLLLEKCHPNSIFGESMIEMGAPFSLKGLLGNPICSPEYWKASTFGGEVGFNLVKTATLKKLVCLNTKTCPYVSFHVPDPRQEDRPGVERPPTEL
In words: COX-1 inhibition, enzyme immune assay (EIA) kit.

In the next series the test system is stomach. In words: Histopathological examination of stomach. Type of series: in vivo, rats. The following applies: rats, H&E stain. As to the method:
In brief, the stomachs of each animal group’s rat were fixed in 10% neutral buffered formalin for 48 h. The sections were then dehydrated, cleared, fixed in paraffin, sectioned ([…]), and stained with H&E stain.

The target of another series is T2, 5-LOX enzyme (Homo sapiens, UniProt P09917).
T2 construct: purchased Cayman Chemical K980-100
T2 sequence (P09917 1-674): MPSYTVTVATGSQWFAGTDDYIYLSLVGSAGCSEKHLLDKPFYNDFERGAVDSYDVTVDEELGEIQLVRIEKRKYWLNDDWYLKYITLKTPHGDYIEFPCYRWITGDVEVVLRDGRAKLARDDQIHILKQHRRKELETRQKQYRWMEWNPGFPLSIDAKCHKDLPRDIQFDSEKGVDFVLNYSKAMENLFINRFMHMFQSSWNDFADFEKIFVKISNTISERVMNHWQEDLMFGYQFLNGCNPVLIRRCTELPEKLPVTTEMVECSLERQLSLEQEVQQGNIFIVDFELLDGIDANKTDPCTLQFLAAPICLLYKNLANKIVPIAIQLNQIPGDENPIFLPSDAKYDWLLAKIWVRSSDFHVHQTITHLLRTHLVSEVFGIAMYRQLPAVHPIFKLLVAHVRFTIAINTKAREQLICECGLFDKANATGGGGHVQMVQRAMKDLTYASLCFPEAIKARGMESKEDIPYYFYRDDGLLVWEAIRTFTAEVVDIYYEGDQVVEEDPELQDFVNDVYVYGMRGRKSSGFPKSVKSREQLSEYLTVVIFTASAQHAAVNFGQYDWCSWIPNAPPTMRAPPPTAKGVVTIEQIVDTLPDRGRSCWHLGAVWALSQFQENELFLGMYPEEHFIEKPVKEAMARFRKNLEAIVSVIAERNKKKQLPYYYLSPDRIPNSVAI
In words: 5-LOX inhibition, Human Lipoxygenase Inhibitor Screening Assay (EIA) kit. Type of series: biochemical. How it is done: The ability of the test compounds to inhibit the 5-LOX enzyme (IC50 value, μM) was detected using the Cayman Human Lipoxygenase Inhibitor Screening Assay (EIA) kit (catalog no. K980-100, Cayman Chemical). The IC50 values of test compounds were measured in µM according to the manufacturer’s instructions and reported method.

From the text for ovine COX-1: Colorimetric enzyme immunoassay (EIA) kits were done to screen for the isozyme-specific inhibition.

By melting point is commonly meant the temperature of the solid-liquid transition. What is called IC50 is the concentration at which inhibition is half-maximal. A higher IC50 goes with lower potency. In turn, `COc1ccc(NC(=S)N/N=C/c2cn(S(C)(=O)=O)c3ccccc23)cc1` [Compound 4e, (E)-N-(4-Methoxyphenyl)-2{[1-(methylsulfonyl)-1H-indol 3yl]methylene}hydrazinecarbothioamide] displayed a melting point of 214 to 216 °C. Also, in series [1], the TNF-α fold change is 0.26. In addition, in series [2], the “antibacterial activity against E. coli” value is reported as “selective antibacterial activity”. Moreover, it took 24.7 ± 0.7 µM to reach half-maximal inhibition on ovine COX-1 (IC50 COX-1) (IC50). The compound also had a COX1 %inh at ovine COX-1 (conc 0.1 (μM)) of 5.87%. The compound further displayed a COX1 %inh at ovine COX-1 (conc 1 (μM)) of 14.4%. The compound further had a COX1 %inh at ovine COX-1 (conc 10 (μM)) of 28.6%. The same compound yielded a COX1 %inh on ovine COX-1 (conc 100 (μM)) of 73.5%. The stomach histopathology finding result with stomach is “partial loss of mucous layer with mild superficial erosions”. The compound further came in with an IC50 on 5-LOX enzyme of 4.08 ± 0.22 µM. This compound also displayed a 5-LOX %inh on 5-LOX enzyme (conc 0.1 (μM)) of 17.9%. The compound further registered a 5-LOX %inh on 5-LOX enzyme (conc 1 (μM)) of 30.9%. This compound displayed a 5-LOX %inh at 5-LOX enzyme (conc 10 (μM)) of 55.7%. Besides, the 5-LOX %inh at 5-LOX enzyme (conc 100 (μM)) stood at 85%. Half-maximal inhibition on 5-LOX enzyme (lab report) (IC50) was put at 4.08 ± 0.22 µM.
Regarding `Cc1ccc(N2C(=O)CSC2=NN=Cc2cn(S(C)(=O)=O)c3ccccc23)cc1` [Compound 5d], the melting point is 271 to 273 °C. Further, in series [1], the TNF-α fold change worked out at 0.21. The “antibacterial activity against E. coli” value in series [2] is “exclusively exhibited bioactivity against E. coli”. Besides, in series [2] (Escherichia coli, ATCC25922, read-out: diameters of inhibition zones), the zone of inhibition at 100 µg/disc is 8 to 15 mm. For the same compound, inhibition against ovine COX-1 (IC50 COX1, lab report / text printing uM) was half-maximal at 5.79 ± 0.16 µM (IC50). For the same compound, at ovine COX-1 (IC50 COX-1), the IC50 amounted to 5.79 ± 0.16 µM. For the same compound, on ovine COX-1 (conc 0.1 (μM)), the COX1 %inh was 8.83%. Besides, the COX1 %inh at ovine COX-1 (conc 1 (μM)) is on record as 27.6%. This compound showed a COX1 %inh on ovine COX-1 (conc 10 (μM)) of 53.7%. At ovine COX-1 (conc 100 (μM)), this compound showed a COX1 %inh of 83.6%. Moreover, the stomach histopathology finding entry with stomach is reported as “minimally disrupted mucous layer”. Besides, the IC50 on 5-LOX enzyme was 1.1 ± 0.06 µM. Besides, the 5-LOX %inh on 5-LOX enzyme (conc 0.1 (μM)) was 30.3%. At 5-LOX enzyme (conc 1 (μM)), this compound displayed a 5-LOX %inh of 47.6%. For the same compound, the 5-LOX %inh at 5-LOX enzyme (conc 10 (μM)) is listed as 70.6%. The 5-LOX %inh at 5-LOX enzyme (conc 100 (μM)) turned out to be 86.9%. This compound showed an IC50 at 5-LOX enzyme (lab report) of 1.1 ± 0.06 µM.
